Values of other authors in patent publication US11877989B2, “Nutritional supplement containing L-α-glycerophosphorylcholine” (Energy Beverages LLC, priority 2020, dated 2024).

Key:
[1] = system: subjects; details: in vivo
[2] = six weeks of supplementation
[3] = system: subjects
[4] = system: subjects; details: 600 mg per day, after 6 days
[5] = system: mice
[6] = system: amnesia caused by scopolamine; details: oral
[7] = dose of 6 mg/kg
[8] = system: rats
[9] = system: rats; details: up to 1000 mg/kg/day
[10] = single intramuscular dose
[11] = in vivo and in vitro assays
[12] = system: beagles; details: up to 300 mg/kg/day
[13] = system: healthy male subjects; details: 1000 mg ingested, 60 min after taking
[14] = system: patients after stroke or transient ischemic attacks; details: 1000 mg daily for 28 days, then 400 mg three times per day for 5 months

## CC(C)C[C@H](NC(=O)CN(C)C(=N)N)C(=O)O [Creatyl-L-leucine, creatyl-L-leucine]
other
  solubility relative to creatine and L-leucine: more soluble than either creatine or L-leucine

## CCNC(=O)CC[C@H](N)C(=O)O [L-theanine, N^5-ethyl-L-glutamine]
[1]
  cognitive function, including verbal fluency, versus placebo: improved

## C[N+](C)(C)CC(=O)[O-] [trimethylglycine]
[2]
  effects of supplementation on body composition, arm size, bench press work capacity and urinary HCTL: improve body composition, arm size, and bench press work capacity, and to attenuate the rise in urinary homocysteine thiolactone (HCTL)

## L-α-glycerophosphorylcholine [α-GPC]
[3]; 600 mg
  peak bench press force, greater: 14%
[3]; 600 mg single dose
  increase of peak growth hormone levels: 44 fold
  peak growth hormone level after supplementation: 8.4 ± 2.1 ng/mL
[3]; 600 mg single dose, starting value
  peak growth hormone level before supplementation: 0.19 ± 0.06 ng/mL
[4]
  lower body force production: increased lower body force production
[5]
  oral LD50: ≥ 10,000 mg/kg
[6]
  effect on amnesia caused by scopolamine in passive avoidance: reverses amnesia
[6]; 5 h before training
  dose of peak effect: 600 mg/kg
[7]
  improvement of accuracy during a reaction-time test: 12%
  increase of upper body power output: 12%
[8]
  oral LD50: ≥ 10,000 mg/kg
[9]
  symptomology in sub-chronic and chronic oral toxicity studies: reduced activity; slight decreases in food consumption and body weight gain; and slight reduction in liver weight
[10]
  return of plasma choline concentration to baseline: returned to near baseline values over a six hour period
  time of peak plasma choline levels: within about half an hour after the injection
[11]
  mutagenic activity: devoid of mutagenic activity
[12]
  symptomology in sub-chronic and chronic oral toxicity studies: reduced activity; slight decreases in food consumption and body weight gain; and slight reduction in liver weight
[13]
  plasma growth hormone secretion versus placebo: increased significantly
[14]
  cognitive recovery: assists in the cognitive recovery
